Values of other authors, collected in patent US20260207481A1, “INTRANASAL […] OF C[…] TREAT CENTRAL NERVOUS SYSTEM DISORDERS” (Nose to Brain Therapeutics LLC, priority 2019, published 2026).

What was measured:
[1] = oral mucosal sprays compared to IV administration (FIG. 2)
CB2 = CB2 (Homo sapiens, UniProt P34972)
Chain of CB2 (P34972 whole entry): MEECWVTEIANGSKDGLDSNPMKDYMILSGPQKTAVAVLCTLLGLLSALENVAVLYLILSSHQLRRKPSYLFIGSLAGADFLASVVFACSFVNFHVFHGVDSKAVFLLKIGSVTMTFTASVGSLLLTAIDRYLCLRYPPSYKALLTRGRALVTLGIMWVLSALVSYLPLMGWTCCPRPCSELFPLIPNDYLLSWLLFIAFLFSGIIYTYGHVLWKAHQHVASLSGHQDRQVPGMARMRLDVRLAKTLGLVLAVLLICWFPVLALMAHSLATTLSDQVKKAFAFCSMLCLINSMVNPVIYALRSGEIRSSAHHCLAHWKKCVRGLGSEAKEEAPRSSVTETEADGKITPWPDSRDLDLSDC

## C=C(C)[C@@H]1CCC(C)=C[C@H]1c1c(O)cc(CCCCC)cc1O [CBD, Cannabidiol]
[1]
  Cmax: poor
CB2
  binding affinity to CB2: minimal
